The source of these data is patent US20240009174A1, “METHODS FOR DISRUPTING MITOCHONDRIAL UNFOLDED PROTEIN RESPONSE” (Health Research, Inc., priority 2020, published 2024).

SMILES strings stand for the structures.

One series relates to RWPE-1 cells. The series can be described thus: Apoptosis in non-carcinoma RWPE-1 cells (Annexin V/PI labeling). It is filed as cell-based. The conditions noted are these: 24 h and 48 h, doses 5, 10, 20. The protocol:
FIG. 9. Structure of DCEM1 is shown in (A). (B) Human prostate epithelial non carcinoma RWPE-1 cells were treated with DCEM1 at indicated doses for 24 h and 48 h and apoptotic cells were quantified by Annexin V/PI labeling as described in material and methods. In (B), the bars in each series from left to right are DMSO, 5, 10, and 20.
Identification of novel inhibitor of HSP60-ClpP interaction that disrupts UPR^mt function and induces PCa cell death. Having shown that two arms of UPR^mt, HSP60 chaperonin and ClpP protease interact and play critical role in PCa cell survival, an in silico analysis was performed and a small molecule library (developed by Enamine Ltd) was screened to identify drugs targeting the apical domain of HSP60 critical for its interaction with ClpP. 9 compounds (A-I) were identified and screened for their cell death inducing potential in PCa cells (data not shown). […] Colony forming ability of PCa cells was inhibited by DCEM1 treatment (data not shown).

The next series addresses T1, HSP60-ClpP interaction (Homo sapiens, UniProt P10809).
T1 construct: endogenous in cells
Briefly: HSP60-ClpP co-immunoprecipitation assay in PCa cells. It is filed as cell-based. The settings on record: LNCaP and PC-3 cells, 24 hours. The protocol: FIG. 6. Pharmacological inhibition of HSP60-ClpP interaction induces UPR^mt and PCa cell death. (A) Docking of DCEM1 into apical domain of HSP60. (B) LNCaP and PC-3 cells were treated with DCEM1 for 24 hours and HSP60-ClpP interaction was analyzed by co-immunoprecipitation assay. (C) LNCaP and PC-3 cells were treated with DCEM1 for 24 hours and mitoROS levels were analyzed by flow cytometry using mitoSOX dye. (D) LNCaP and PC-3 cells were treated with DCEM1 for 24 hours and poly-Ub protein levels were analyzed by western blotting. (E) LNCaP and PC-3 cells were treated with DCEM1 for 24 and 48 hours and apoptotic cell populations were analyzed by flow cytometry using Annexin V FITC/PI method as explained in materials and methods. In (E) top panel, the bars in each series from left to right are control, 5, 10, and 20, and in (E) bottom panel, the bars in each series from left to right are DMSO, 5, 10, and 20. (F) LNCaP and PC-3 cells were treated with DCEM1 for 24 and 48 hours and lysates were prepared and analyzed for DEVDase activity using specific peptide substrate. […] (G) LNCaP and PC-3 cells were pre-treated with SKQ1 followed by DCEM1 treatment and analyzed for cell viability by MTT assay. (H) LNCaP and PC-3 cells were treated with either DCEM1 or H2O2 (200 μM) for 24 hours and total DNA were isolated and analyzed for mtDNA damage as described in materials and methods. […]

The test system of series [1] is 22RV1 (AR positive) xenografts. Briefly: 22RV1 xenograft in SCID mice. It is filed as in vivo. The settings on record: 60 mg/kg bw. As to the method:
(§1) FIG. 8. Pharmacological inhibition of HSP60-ClpP inhibit oncogenic signaling and PCa tumor growth in vivo. (A) LNCaP, PC-3 and 22RV1 cells were treated with DCEM1 and analyzed for c-Myc and EZH2 protein expression after 24 hours of treatment. (B) LNCaP, 22RV1 and VCaP cells were treated with DCEM1 and analyzed for AR and PSA protein expression after 24 hours of treatment. (C-D) 22RV1 cells (1×10^6 cells) were mixed with matrigel (50:50 v/v) and injected into each flank of SCID mice and treated with DCEM1 (60 mg/kg bw) through IP route twice weekly and tumors were harvested, photographed (C) and weighed (D) at 30 days. (E) DEVDase activity were analyzed in 22RV1 xenograft tumor tissue following DCEM1 treatment and represented as fold change compared to control. (F) 22RV1 xenograft tissue were sectioned and expression of ki67, c-Myc and EZH2 proteins were analyzed by Immunohistochemistry as described in material and methods. (G-H) PC-3 cells (1×10^6 cells) were mixed with matrigel (50:50 v/v) and injected into each flank of SCID mice and treated with DCEM1 (60 mg/kg bw) through IP route twice weekly and tumors were harvested, photographed (G) and weighed (H) at 35 days. (I) DEVDase activity were analyzed in PC-3 xenograft tumor tissue following DCEM1 treatment and represented as fold change compared to control. (J) PC-3 xenograft tumor tissue were fixed and sections were used for in situ PLA to analyze HSP60-ClpP interaction in these tissue samples. […] All animals were sacrificed at 16 weeks of age and prostate tissue and tumors were harvested, whole cell lysate were prepared and analyzed for HSP60 and ClpP expression (N); c-Myc and EZH2 expression (0) and SYP and CK 8/18 expression (P) by immunoblotting. […]
(§2) Ablation of HSP60-ClpP interaction by DCEM1 downregulates c-Myc, EZH2 and AR as well as inhibits tumor growth in vivo. […] The effect of DCEM1 on 22RV1 (AR positive) and PC-3 (AR negative) xenografts growth in SCID mice was analyzed. […]

Another series relates to TKO prostate tumors. The series can be described thus: Spontaneous prostate tumor in PTEN:Rb:p53 knockout (TKO) animals. It is filed as in vivo, mice. As to the method:
as §1, with “samples. (K) PBCre4:PTEN F/F: Rb F/F: p53 F/F (TKO) animals were treated with either vehicle (Normal saline: DMSO: Kolliphor HS15; 70:5:200 v/v) or DCEM1 (60 mg/kg bw in vehicle) twice weekly from 10 weeks of age. All animals were sacrificed at 16 weeks of age and whole genitourinary tract was harvested and weighed. (L) PBCre4:PTEN F/F: Rb F/F: p53 F/F (TKO) animals were treated with either vehicle (Normal saline:DMSO:Kolliphor HS15; 70:5:200 v/v) or DCEM1 (60 mg/kg bw in vehicle) twice weekly from 10 weeks of age. All animals were sacrificed at 16 weeks of age and imaged by MRI. (M) PBCre4:PTEN F/F: Rb F/F: p53 F/F (TKO) animals were treated with either vehicle (Normal saline:DMSO:Kolliphor HS15; 70:5:200 v/v) or DCEM1 (60 mg/kg bw in vehicle) twice weekly from 10 weeks of age.” for “samples.”
as §2

The mark [2] stands for this setting: 60 mg/kg bw twice weekly, 10 to 16 weeks of age, immunoblotting.

T1 sequence (P10809 27-573): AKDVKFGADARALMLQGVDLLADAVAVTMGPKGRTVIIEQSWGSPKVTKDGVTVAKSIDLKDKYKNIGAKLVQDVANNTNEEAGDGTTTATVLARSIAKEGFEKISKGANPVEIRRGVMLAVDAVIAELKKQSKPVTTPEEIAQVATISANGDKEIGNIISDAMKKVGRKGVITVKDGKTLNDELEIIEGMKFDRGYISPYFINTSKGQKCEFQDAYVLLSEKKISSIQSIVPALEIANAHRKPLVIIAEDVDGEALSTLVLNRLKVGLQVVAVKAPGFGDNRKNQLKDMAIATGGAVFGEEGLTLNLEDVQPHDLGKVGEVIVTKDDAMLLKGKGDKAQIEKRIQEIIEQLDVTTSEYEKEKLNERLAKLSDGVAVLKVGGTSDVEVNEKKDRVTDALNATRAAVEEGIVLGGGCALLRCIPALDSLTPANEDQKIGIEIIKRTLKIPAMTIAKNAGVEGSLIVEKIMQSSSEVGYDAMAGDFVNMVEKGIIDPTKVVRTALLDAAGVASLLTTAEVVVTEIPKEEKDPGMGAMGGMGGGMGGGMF

`CCOc1cc(CNCc2nc3ccccc3[nH]2)ccc1OCc1cccs1` [DCEM1]: in the series with RWPE-1 cells, the “effect (cell death/apoptosis) on non-carcinoma prostate epithelial RWPE-1 cells” value is recorded as “no effect”. For the same molecule, the “HSP60-ClpP interaction by co-immunoprecipitation” value on HSP60-ClpP interaction is given as “inhibited HSP60-ClpP interactions in a dose dependent manner”. Moreover, the “caspase-3 (DEVDase) activity in 22RV1 xenograft tumors” value in series [1] (IP, twice weekly) is recorded as “induced”. Also, the “tumor volume and weight, 22RV1 xenografts” value in series [1] (IP, twice weekly, 30 days) is “effectively inhibited”. For the same molecule, in series [1] (immunohistochemistry), the “expression of Ki67, c-Myc, EZH2 and AR in 22RV1 xenograft” value is “downregulated expression of Ki67, c-Myc, EZH2 and AR”. Also, the “prostate tumor growth in TKO mice (GU weight, tumor volume by MRI)” value with TKO prostate tumors (60 mg/kg bw twice weekly from 10 weeks to 16 weeks of age) was “significantly inhibited prostate tumor growth”. In the series on TKO prostate tumors (setting [2]), the “HSP60 and ClpP expression in TKO prostatic tissue” value was “downregulated HSP60 and ClpP expression”; the “SYP and CK 8/18 expression in TKO tumor tissues” value was “downregulated SYP and up regulated CK 8/18 expression”; the “c-Myc and EZH2 in TKO prostatic tissue” value was “depletion of c-Myc and EZH2”.
